We go through 13 compounds from PubChem BioAssay AID328 (DTP/NCI, 2004).

The test system of the assay is BDF1 mice, P388 leukemia ip, median survival T/C. The assay is described as follows: NCI In Vivo Anticancer Drug Screen. Data for tumor model P388 Leukemia (intraperitoneal) in B6D2F1 (BDF1) mice. The conditions noted are these: endpoint: median survival time, higher = longer survival. The essentials: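 Read-out is survival of treated animals expressed relative to the vehicle group, as a T/C ratio.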

The mark [1] stands for this setting: dose: 100.0 mg/kg/injection, schedule: Q04DX003 (ip), vehicle: saline.
The mark [2] stands for this setting: dose: 50.0 mg/kg/injection, schedule: Q01DX009 (ip), vehicle: saline with Tween-80.
Where [3] appears, read: dose: 100.0 mg/kg/injection, schedule: Q01DX009 (ip), vehicle: saline with Tween-80.
Where [4] appears, read: dose: 200.0 mg/kg/injection, schedule: Q01DX009 (ip), vehicle: saline with Tween-80.
Setting [5] is: dose: 100.0 mg/kg/injection, schedule: Q04DX003 (ip), vehicle: Klucel (hydroxypropylcellulose) (HPC).
Setting [6] is: dose: 200.0 mg/kg/injection, schedule: Q04DX003 (ip), vehicle: Klucel (hydroxypropylcellulose) (HPC).

Several values for one entry are separate records, joined by “and”; a condition that tells them apart may be missing. Equal entries are not always repeated. Inconclusive results and toxic doses are left out. Starred links: 1 amine or outer side, 2 acyl side, 3 side chain; linkers in the order of their positions; H or OH if unused. Positions of bridges follow the written chain, without caps; N, C: chain ends. Non-standard residues stand in square brackets, D forms with d. Residues, ends and D or L forms follow the SMILES beside them. Chains are numbered I, II in the order given. Actinocin(9to1) = Cc1c2oc3c(C)ccc(C(=O)[*:1])c3nc-2c(C(=O)[*:2])c(N)c1=O; NMeV = CN[CH](C(=O)O)C(C)C; Aze = O=C(O)[CH]1CCN1; Sar = CNCC(=O)O

On to `NNC(=O)CCCCCC(=O)NN`, for which the T/C is 100 % of control (dose: 100.0 mg/kg/injection, schedule: Q01DX001 (ip), vehicle: saline); 110 % of control (dose: 100.0 mg/kg/injection, schedule: Q01DX009 (ip), vehicle: alcohol); 95 % of control under setting [1]; 100 % of control (dose: 200.0 mg/kg/injection, schedule: Q01DX001 (ip), vehicle: saline); 95 % of control (dose: 200.0 mg/kg/injection, schedule: Q01DX009 (ip), vehicle: alcohol); 113 % of control (dose: 200.0 mg/kg/injection, schedule: Q04DX003 (ip), vehicle: saline). For the same compound, the T/C reads like this: (dose: 400.0 mg/kg/injection, schedule: Q01DX001 (ip), vehicle: saline) 100 % of control; (dose: 400.0 mg/kg/injection, schedule: Q01DX009 (ip), vehicle: alcohol) 90 % of control; (dose: 400.0 mg/kg/injection, schedule: Q04DX003 (ip), vehicle: saline) 90 % of control.
For the compound `CCOC(=O)Cn1nc(-c2ccc([N+](=O)[O-])o2)sc1=O`, the T/C runs as follows: under setting [2], 110 % of control; under setting [3], 94 % of control; under setting [4], 117 % of control.
`Cc1c2oc3c(C)ccc(C(=O)NC4C(=O)NC(C(C)C)C(=O)N5CCC5C(=O)N(C)CC(=O)N(C)C(C(C)C)C(=O)OC4C)c3nc-2c(C(=O)NC2C(=O)NC(C(C)C)C(=O)N3CCC3C(=O)N(C)CC(=O)N(C)C(C(C)C)C(=O)OC2C)c(N)c1=O` (stereo not given) (I: TV[Aze][Sar][NMeV] / II: TV[Aze][Sar][NMeV]; ester I:1-I:C, II:1-II:C; linker I:N-II:N via Actinocin(9to1); configuration not given here): the T/C reads like this: (dose: 0.26 mg/kg/injection, schedule: Q04DX003 (ip), vehicle: saline) 226 % of control; (dose: 0.4 mg/kg/injection, schedule: Q04DX003 (ip), vehicle: saline) 180 % of control; (dose: 0.6 mg/kg/injection, schedule: Q04DX003 (ip), vehicle: saline) 319 % of control; (dose: 12.5 micrograms/kg/injection, schedule: Q01DX009 (ip), vehicle: saline + alcohol) 190 % of control; (dose: 25.0 micrograms/kg/injection, schedule: Q01DX009 (ip), vehicle: saline + alcohol) 197 % of control; (dose: 50.0 micrograms/kg/injection, schedule: Q01DX009 (ip), vehicle: saline + alcohol) 239 % of control. Besides, the T/C runs as follows: (dose: 75.0 micrograms/kg/injection, schedule: Q01DX009 (ip), vehicle: saline + alcohol) 237 % of control; (dose: 100.0 micrograms/kg/injection, schedule: Q01DX009 (ip), vehicle: saline + alcohol) 260 % of control; (dose: 112.5 micrograms/kg/injection, schedule: Q01DX009 (ip), vehicle: saline + alcohol) 274 % of control; (dose: 150.0 micrograms/kg/injection, schedule: Q01DX009 (ip), vehicle: saline + alcohol) 274 % of control; (dose: 150.0 micrograms/kg/injection, schedule: Q04DX003 (ip), vehicle: saline + alcohol) 218 % of control; (dose: 200.0 micrograms/kg/injection, schedule: Q01DX009 (ip), vehicle: saline + alcohol) 166 % of control. For the same compound, the T/C (dose: 216.0 micrograms/kg/injection, schedule: Q04DX003 (ip), vehicle: saline + alcohol) is 207 % of control; the T/C (dose: 225.0 micrograms/kg/injection, schedule: Q01DX009 (ip), vehicle: saline + alcohol) is 108 % of control; the T/C (dose: 225.0 micrograms/kg/injection, schedule: Q04DX003 (ip), vehicle: saline + alcohol) was 212 % of control; the T/C (dose: 300.0 micrograms/kg/injection, schedule: Q01DX009 (ip), vehicle: saline + alcohol) was 113 % of control; the T/C (dose: 360.0 micrograms/kg/injection, schedule: Q04DX003 (ip), vehicle: saline + alcohol) is 225 % of control; the T/C (dose: 450.0 micrograms/kg/injection, schedule: Q04DX003 (ip), vehicle: saline + alcohol) is 238 % of control and 336 % of control. The T/C (dose: 900.0 micrograms/kg/injection, schedule: Q04DX003 (ip), vehicle: saline + alcohol) is 88 % of control and 117 % of control; the T/C (dose: 1000.0 micrograms/kg/injection, schedule: Q04DX003 (ip), vehicle: saline + alcohol) is 97 % of control; the T/C (dose: 1200.0 micrograms/kg/injection, schedule: Q04DX003 (ip), vehicle: saline + alcohol) is 102 % of control.
Turning to `C=C(C)C1CCC2=CC(CC3(C)OC3C3=CC(C(=O)OC)=C(C1)O3)OC2=O` (stereo not given), the T/C (dose: 50.0 mg/kg/injection, schedule: Q01DX009 (ip), vehicle: Klucel (hydroxypropylcellulose) (HPC)) was 86 % of control.
As for `CC(=O)OC(C)C1C2=C(C(=O)CC1(C)O)C(=O)c1c(ccc(-c3ccc4c(c3O)C(=O)C3=C(C4=O)C(C(C)OC(C)=O)C(C)(O)CC3=O)c1O)C2=O` (stereo not given), the T/C (dose: 6.25 mg/kg/injection, schedule: Q01DX009 (ip), vehicle: saline with Tween-80) is 122 % of control.
Take `Cc1ccccc1Nc1n[nH]c(=S)s1`: the T/C under setting [2] was 95 % of control, the T/C under setting [3] was 95 % of control and the T/C under setting [4] was 104 % of control.
For the compound `Cc1cc(Cl)c(C)c(Cl)c1Cl`, the T/C under setting [3] is 90 % of control; the T/C under setting [4] was 95 % of control; the T/C (dose: 400.0 mg/kg/injection, schedule: Q01DX009 (ip), vehicle: saline with Tween-80) is 86 % of control.
As to `O=C(O)CCC(=O)c1cccc2ccccc12`, the T/C is 100 % of control (dose: 50.0 mg/kg/injection, schedule: Q01DX001 (ip), vehicle: other); 104 % of control (dose: 50.0 mg/kg/injection, schedule: Q04DX003 (ip), vehicle: Klucel (hydroxypropylcellulose) (HPC)); 90 % of control (dose: 100.0 mg/kg/injection, schedule: Q01DX001 (ip), vehicle: other); 100 % of control under setting [5]; 100 % of control (dose: 200.0 mg/kg/injection, schedule: Q01DX001 (ip), vehicle: other); 113 % of control under setting [6].
Regarding `COc1ccc(C(=O)C=C(C(F)(F)F)C(F)(F)F)cc1`, the T/C (dose: 6.25 mg/kg/injection, schedule: Q04DX003 (ip), vehicle: saline with Tween-80) is 113 % of control; the T/C (dose: 12.5 mg/kg/injection, schedule: Q04DX003 (ip), vehicle: saline with Tween-80) is 100 % of control; the T/C (dose: 25.0 mg/kg/injection, schedule: Q04DX003 (ip), vehicle: saline with Tween-80) is 100 % of control; the T/C (dose: 50.0 mg/kg/injection, schedule: Q04DX003 (ip), vehicle: saline with Tween-80) was 115 % of control; the T/C (dose: 100.0 mg/kg/injection, schedule: Q04DX003 (ip), vehicle: saline with Tween-80) was 110 % of control.
Consider `CC1CCN(SSc2nc3ccccc3s2)CC1`, for which the T/C was 110 % of control under setting [2] and 110 % of control under setting [3].
On to `O=C(c1ccccc1)C1(Br)CCCCC1`, for which the T/C is 104 % of control (dose: 75.0 mg/kg/injection, schedule: Q01DX009 (ip), vehicle: Klucel (hydroxypropylcellulose) (HPC)); 100 % of control (dose: 100.0 mg/kg/injection, schedule: Q01DX001 (ip), vehicle: Klucel (hydroxypropylcellulose) (HPC)); 109 % of control under setting [5]; 95 % of control (dose: 150.0 mg/kg/injection, schedule: Q01DX009 (ip), vehicle: Klucel (hydroxypropylcellulose) (HPC)); 104 % of control (dose: 200.0 mg/kg/injection, schedule: Q01DX001 (ip), vehicle: Klucel (hydroxypropylcellulose) (HPC)); 104 % of control under setting [6]. Moreover, the T/C reads like this: (dose: 300.0 mg/kg/injection, schedule: Q01DX009 (ip), vehicle: Klucel (hydroxypropylcellulose) (HPC)) 86 % of control; (dose: 400.0 mg/kg/injection, schedule: Q01DX001 (ip), vehicle: Klucel (hydroxypropylcellulose) (HPC)) 104 % of control; (dose: 400.0 mg/kg/injection, schedule: Q04DX003 (ip), vehicle: Klucel (hydroxypropylcellulose) (HPC)) 109 % of control.
Regarding `COc1ccc2c(c1)CCNC2CCO` (stereo not given), the T/C (dose: 25.0 mg/kg/injection, schedule: Q04DX003 (ip), vehicle: saline) was 120 % of control; the T/C (dose: 50.0 mg/kg/injection, schedule: Q04DX003 (ip), vehicle: saline) is 110 % of control; the T/C under setting [1] was 120 % of control.
With `C1CN2CCN1CC2.[Cl][Ni+][Cl]`, the T/C is 103 % of control (dose: 0.78 mg/kg/injection, schedule: Q01DX009 (ip), vehicle: saline); 92 % of control and 99 % of control (dose: 1.56 mg/kg/injection, schedule: Q01DX009 (ip), vehicle: saline); 99 % of control and 103 % of control (dose: 3.12 mg/kg/injection, schedule: Q01DX009 (ip), vehicle: saline); 100 % of control and 101 % of control (dose: 6.25 mg/kg/injection, schedule: Q01DX009 (ip), vehicle: saline).
